Values of other authors in patent US11737967B2, “Increasing the stability of agents for treating keratin material” (Henkel AG & Co. KGaA, priority 2019, dated 2023).

conditions: 25° C.

SMILES	solubility in water
CCN(Cc1cccc(S(=O)(=O)[O-])c1)c1ccc(C(=C2C=CC(=[N+](CC)Cc3cccc(S(=O)(=O)[O-])c3)C=C2)c2ccccc2S(=O)(=O)[O-])cc1.[Na+].[Na+] [Acid Blue 9]	more than 20 % by weight
O=S(=O)([O-])c1ccc(N=Nc2c(O)ccc3ccccc23)cc1.[Na+] [Acid Orange 7, sodium salt of 4-[(2-hydroxy-1-naphthyl)azo]benzene sulphonate]	more than 7 g/L
O=C([O-])c1c(Cl)c(Cl)c(Cl)c(Cl)c1-c1c2c(Br)cc(=O)c(Br)c-2oc2c(Br)c(O)cc(Br)c12.O=C([O-])c1c(Cl)c(Cl)c(Cl)c(Cl)c1-c1c2c(Br)cc(=O)c(Br)c-2oc2c(Br)c(O)cc(Br)c12.[Na+].[Na+] [Acid Red 92, disodium salt of 3,4,5,6-tetrachloro-2-(1,4,5,8-tetrabromo-6-hydroxy-3-oxoxanthen-9-yl)benzoic acid]	greater than 10 g/L

More lines, now with the values ahead:

solubility in water	SMILES
2500 µg/mL	Nc1cc(S(=O)(=O)[O-])cc2cc(S(=O)(=O)[O-])c(N=Nc3ccccc3)c(O)c12.[Na+].[Na+] [Acid Red 33, diantrium salt of 5-amino-4-hydroxy-3-(phenylazo)-naphthalene-2,7-disulphonate]
highly soluble	O=C([O-])C1=NN(c2ccc(S(=O)(=O)[O-])cc2)C(=O)C1N=Nc1ccc(S(=O)(=O)[O-])cc1.[Na+].[Na+].[Na+] (centres unmarked) [Acid Yellow 23, trisodium salt of 4,5-dihydro-5-oxo-1-(4-sulfophenyl)-4-((4-sulfophenyl)azo)-1H-pyrazole-3-carboxylic acid]
